Values of other authors, collected in article PMC7306898, “Concentration-Dependent Activity of Hydromethylthionine on Clinical Decline and Brain Atrophy in a Randomized Controlled Trial in Behavioral Variant Frontotemporal Dementia” (Journal of Alzheimer's Disease, 2020).
pEC50, pIC50: −log10 of the molar value. Like-named read-outs stand apart in the source and are kept apart here.

How the values were obtained:
[1] = cited from earlier work; for Plasma Half-life, Mean: value in parentheses ref U.S. approved product labeling
[2] = set-up: method as in Investigator's Brochure; settings: coadministration of reduced leuco (LMT) form with food ref Investigator's Brochure; cited from earlier work
serotonin transporter = test system: serotonin transporter; set-up: method as in PMID 21542830; settings: in vitro ref 73; cited from earlier work
mitochondrial activity = test system: mitochondrial activity; set-up: method as in PMID 22419586, PMID 17928358; settings: cited from earlier work
TDP-43 = test system: TDP-43; set-up: method as in PMID 19560462; settings: cell models ref 34; read-out: EC50, inhibition of aggregation of TDP-43; cited from earlier work
[3] = test system: subjects with mild or moderate AD; settings: cited from earlier work
[4] = test system: subjects with a clinical diagnosis within the FTLD spectrum; set-up: method as in Investigator's Brochure; settings: MTC 138 mg/day MT, cited from earlier work
male rats = test system: male rats; set-up: method as in U.S. National Toxicology Program; settings: pancreatic islet cell adenoma and adenoma or carcinoma ref U.S. National Toxicology Program; cited from earlier work
subjects with AD = test system: subjects with AD; set-up: method as in TRx-014-001; settings: cited from earlier work
mice = test system: mice; set-up: method as in U.S. National Toxicology Program; settings: cited from earlier work
[5] = ref U.S. approved product labeling
[6] = single dose ref U.S. approved product labeling
[7] = Biphasic ref U.S. approved product labeling

N[C@@H]1C[C@H]1c1ccccc1 (racemic) [Tr a n yl c yp r o mi n e, Tranylcypromine]
Plasma Half-life, range or single value [1, 5]: 2.5 h

Oc1ccc2c(c1)N=C(N1CCNCC1)c1cc(Cl)ccc1O2 [8-hydroxyamoxapine]
Plasma Half-life, range or single value [1, 5]: 30 h

CN(C)CCC=C1c2ccccc2CCc2ccccc21 [Amitriptyline]
Plasma Half-life, range or single value [1, 5]: 9 to 25 h

Clc1ccc2c(c1)C(N1CCNCC1)=Nc1ccccc1O2 [Amo xapine, Amoxapine]
Plasma Half-life, range or single value [1, 5]: 8 h

CC(NC(C)(C)C)C(=O)c1cccc(Cl)c1 (centres unmarked) [Bupropion]
Plasma Half-life, range or single value [1, 5]: 12 to 30 h | Plasma Half-life, Mean [1]: 21 h

O=C1CC2(CCCC2)CC(=O)N1CCCCN1CCN(c2ncccn2)CC1 [Buspirone]
Plasma Half-life [1, 6]: 2 to 3 h

CN(C)CCCC1(c2ccc(F)cc2)OCc2cc(C#N)ccc21 (centres unmarked) [Citalopram]
Plasma Half-life, range or single value [1, 5]: 35 h | increase in half-life reported in elderly [1, 5]: 30-50%

CN(C)[C@@H](CCOc1cccc2ccccc12)c1ccccc1 [Dapoxetene]
Plasma Half-life, initial [1, 7]: 1.5 h | Plasma Half-life, terminal [1, 7]: 20 h

CNCCC=C1c2ccccc2COc2ccccc21 [Des meth yldoxepin, Desmethyldoxepin]
Plasma Half-life, range or single value [1, 5]: 28 to 52 h

CNCCCN1c2ccccc2CCc2ccccc21 [Desipramine]
Plasma Half-life, range or single value [1, 5]: 12 to 27 h

CNCCCN1c2ccccc2CCc2ccc(Cl)cc21 [Desmeth ylclo mipramine, Desmethylclomipramine]
Plasma Half-life, range or single value [1, 5]: 54 to 77 h | Plasma Half-life, Mean [1]: 69 h

CN(C)CC(c1ccc(O)cc1)C1(O)CCCCC1 (centres unmarked) [Desven la fa xin e, Desvenlafaxine]
Plasma Half-life, range or single value [1, 5]: 11 h

CN(C)CC/C=C1\c2ccccc2CSc2ccccc21 [Dosulepin]
Plasma Half-life for “its metabolites” [1, 5]: 23 to 46 h | Plasma Half-life, range or single value [1, 5]: 19 to 33 h

CN(C)CCC=C1c2ccccc2COc2ccccc21 [Doxepin]
Plasma Half-life, range or single value [1, 5]: 15.3 h

CC(NC(C)(C)C)C(O)c1cccc(Cl)c1 (centres unmarked) [Erythrohydrobupropion]
Plasma Half-life, range or single value [1, 5]: 23 to 43 h | Plasma Half-life, Mean [1]: 33 h

CN(C)CCC[C@@]1(c2ccc(F)cc2)OCc2cc(C#N)ccc21 [Escitalopram]
Plasma Half-life, range or single value [1, 5]: 27 to 32 h | increase in half-life reported in elderly [1, 5]: 50%

CNCCC(Oc1ccc(C(F)(F)F)cc1)c1ccccc1 (centres unmarked) [Fluoxetine]
Plasma Half-life ([1]; Acute ref U.S. approved product labeling): 24 to 72 h | Plasma Half-life ([1]; Chronic ref U.S. approved product labeling): 96 to 140 h

COCCCC/C(=N\OCCN)c1ccc(C(F)(F)F)cc1 [Fluvoxamine]
Plasma Half-life, range or single value [1, 5]: 15.6 h

C[C@H]1NC(C)(C)CO[C@]1(O)c1cccc(Cl)c1 [Hydroxybupropion]
Plasma Half-life, range or single value [1, 5]: 15 to 25 h | Plasma Half-life, Mean [1]: 20 h

CN(C)c1ccc2c(c1)Sc1cc(N(C)C)ccc1N2 [LMT, leuco-methylthioninium]
lowering of peak concentrations with food [2]: 8%

CN(C)c1ccc2nc3ccc(=[N+](C)C)cc-3sc2c1 [MT, methylthioninium]
pIC50 (serotonin transporter): 5.92 | concentrations at which mitochondrial activity is enhanced (mitochondrial activity): 10 to 100 nM | pEC50 (TDP-43): 7.30

CN(C)c1ccc2nc3ccc(=[N+](C)C)cc-3sc2c1 [MTC, methylthioninium chloride]
clinically effective dose available ([3]; 100 mg MTC capsules twice or three times daily, nominal doses 152-228 mg/day ref Baddeley et al., 2015, Wischik et al.): 72 to 109 mg/day | minimum effective dose in AD ([3]; placebo-controlled dose-finding Phase II trial ref 47): 138 mg/day | MMSE scores, mean above Baseline ([4]; 12 months ref Investigator's Brochure): 1.6 units | ACE-R scores improved by a mean (mean ± SEM) ([4]; 12 months, 7 subjects, LOCF ref Investigator's Brochure): 4.5 ± 2.4 units | carcinogenic activity (male rats): som e evi dence of carcino genic | methemoglobin, highest value observed (subjects with AD; Phase 2 study ref TRx-014-001): 8% | Diarrhea and related adverse events (subjects with AD; highest dose, 228 mg MT/day ref TRx-014-001): 48% | discontinuation due to urinary adverse events (subjects with AD; including urinary discoloration and staining ref TRx-014-001): 6% | discontinuation due to diarrhea and related adverse events, overall (subjects with AD; ref TRx-014-001): 16% | mean methemoglobin levels (subjects with AD; ref TRx-014-001): below 3.5% | subjects discontinued due to vomiting (subjects with AD; ref TRx-014-001): 3% | methemoglobin, mean overall (subjects with AD; those treated with MTC ref TRx-014-001): 0.8% | carcinogenic activity (mice; female mice, malignant lymphoma ref U.S. National Toxicology Program): equi vocal eviden ce of | carcinogenic activity (mice; male mice, carcinoma and adenoma or carcinoma in the small intestine ref U.S. National Toxicology Program): some evidenc e of car cinogeni c activit y

CNCCCC12CCC(c3ccccc31)c1ccccc12 [Maprotiline]
Plasma Half-life, range or single value [1, 5]: 51 h

CCN(CC)C(=O)C1(c2ccccc2)CC1CN (centres unmarked) [Milnacipran]
Plasma Half-life, range or single value [1, 5]: 6 to 8 h

O=C(NCCN1CCOCC1)c1ccc(Cl)cc1 [Moclobemide]
Plasma Half-life, range or single value [1, 5]: 1 to 2 h

N[C@H]1CC[C@@H](c2ccc(Cl)c(Cl)c2)c2ccccc21 [N-desmethyls ertraline, N-desmethylsertraline]
Plasma Half-life, range or single value [1, 5]: 62 to 104 h

CCc1nn(CCCN2CCN(c3cccc(Cl)c3)CC2)c(=O)n1CCOc1ccccc1 [Nefazodone]
Plasma Half-life, range or single value [1, 5]: 2 to 4 h

CNCCC=C1c2ccccc2COc2ccccc21 [Nordoxepin]
Plasma Half-life, range or single value [1, 5]: 31 h

NCCC(Oc1ccc(C(F)(F)F)cc1)c1ccccc1 (centres unmarked) [Norfluoxetine]
Plasma Half-life, Range [1, 5]: 96 to 384 h | Plasma Half-life, Mean [1]: 223 h

CNCCC=C1c2ccccc2CCc2ccccc21 [Nortriptyline]
Plasma Half-life, range or single value [1, 5]: 16 to 93 h

CN(C)CC(c1ccc(O)cc1)C1(O)CCCCC1 (centres unmarked) [O-desmeth ylvenlafaxine, O-desmethylvenlafaxine]
Plasma Half-life, range or single value [1, 5]: 9 to 13 h

Fc1ccc([C@@H]2CCNC[C@H]2COc2ccc3c(c2)OCO3)cc1 [P aroxetine, Paroxetine]
Plasma Half-life, range or single value [1, 5]: 21 h

CNCCCC1c2ccccc2C=Cc2ccccc21 [P rotriptyline, Protriptyline]
Plasma Half-life, range or single value [1, 5]: 55 to 198 h

NNCCc1ccccc1 [Phenelzine]
Plasma Half-life [1, 6]: 11.6 h

C#CCNC(C)Cc1ccccc1 (stereo not drawn) [R(-)-N -desmeth ylselegiline, R(-)-N-desmethylselegiline]
Plasma Half-life, range or single value [1, 5]: 18 to 25 h

CN[C@H](C)Cc1ccccc1 [R(-)-methamphetamine]
Plasma Half-life, range or single value [1, 5]: 18 to 25 h

C#CCN(C)[C@H](C)Cc1ccccc1 [Selegiline]
Plasma Half-life, range or single value [1, 5]: 10 h

CN[C@H]1CC[C@@H](c2ccc(Cl)c(Cl)c2)c2ccccc21 [Sertraline]
Plasma Half-life, range or single value [1, 5]: 26 h

C[C@H](NC(C)(C)C)[C@@H](O)c1cccc(Cl)c1 [Threohydrobupropion]
Plasma Half-life, range or single value [1, 5]: 24 to 50 h | Plasma Half-life, Mean [1]: 37 h

CC(CN(C)C)CN1c2ccccc2CCc2ccccc21 (centres unmarked) [Tr i mi p r a mi n e, Trimipramine]
Plasma Half-life, range or single value [1, 5]: 11 to 23 h

O=c1n(CCCN2CCN(c3cccc(Cl)c3)CC2)nc2ccccn12 [Trazodone]
Plasma Half-life [1, 6]: 10 h

COc1ccc(C(CN(C)C)C2(O)CCCCC2)cc1 (centres unmarked) [V enlafaxine, Venlafaxine]
Plasma Half-life, range or single value [1, 5]: 3 to 7 h

N#Cc1ccc2[nH]cc(CCCCN3CCN(c4ccc5oc(C(N)=O)cc5c4)CC3)c2c1 [V ilazod on e, Vilazodone]
Plasma Half-life, range or single value [1, 5]: 25 h

CCN(CC)C(=O)[C@]1(c2ccccc2)C[C@@H]1CN [d-milnacipran]
Plasma Half-life, range or single value [1, 5]: 8 to 10 h

CCN(CC)C(=O)[C@@]1(c2ccccc2)C[C@H]1CN [l-enatiomer]
Plasma Half-life, range or single value [1, 5]: 4 to 6 h
